Reference: patent US20250382344A1, “Soluble GLP1/GIP/NPY2 Receptor Triple Agonists” (Boehringer Ingelheim International GmH, priority 2024, published 2025)
Like-named read-outs stand apart in the source and are kept apart here. *1 amine or outer side, *2 acyl side, *3 side chain or, on linkers, in order; H or OH if unused. Where a SMILES comes first, the peptide text is derived from it. Side-chain parts run from the residue outwards. [ ]: non-standard residue; d: D form. The star is where a group is joined. Argψ(CH2NH)TyrNH2 = N=C(N)NCCC[C@@H](CN[C@@H](Cc1ccc(O)cc1)C(N)=O)N*; C20 diacid = O=C(O)CCCCCCCCCCCCCCCCCCC(=O)*; γGlu = O=C(O)[C@H](CCC(=O)[*:2])N[*:1]; εLys = N[C@@H](CCCCN[*:1])C(=O)[*:2]; Aib = CC(C)(N)C(=O)O

Legend:
[1] = biological target: T1, hGLP1R (Homo sapiens, UniProt P43220); test: hGLP1R CreLuc assay in 0.5% and 100% plasma (HEK-293 CRE-luciferase reporter cells); type: cell-based; settings: HEK-293 reporter cells
T1 construct: expressed in transfected cells; host or cells: HEK-293 CRE-luciferase reporter cells

[2] = biological target: T2, hNPY2R (Homo sapiens, UniProt P49146); test: hNPY2R CreLuc assay in 0.5% and 100% plasma (HEK-293 CRE-luciferase reporter cells); type: cell-based; settings: HEK-293 reporter cells
T2 construct: expressed in transfected cells; host or cells: HEK-293 CRE-luciferase reporter cells
T2 sequence (P49146 1-381): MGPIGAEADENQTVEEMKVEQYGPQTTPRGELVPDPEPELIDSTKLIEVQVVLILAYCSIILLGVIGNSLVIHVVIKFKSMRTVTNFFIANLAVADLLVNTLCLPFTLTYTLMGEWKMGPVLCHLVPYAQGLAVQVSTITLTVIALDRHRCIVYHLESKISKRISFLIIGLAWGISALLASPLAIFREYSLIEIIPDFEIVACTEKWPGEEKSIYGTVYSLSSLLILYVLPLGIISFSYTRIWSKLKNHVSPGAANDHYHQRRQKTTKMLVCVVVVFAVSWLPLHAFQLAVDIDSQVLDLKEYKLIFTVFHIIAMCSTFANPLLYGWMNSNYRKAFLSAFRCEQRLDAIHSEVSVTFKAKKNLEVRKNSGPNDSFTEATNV

[3] = biological target: T3, hGIPR (Homo sapiens, UniProt P48546); test: hGIPR CreLuc assay in 0.5% and 100% plasma (CHO CRE-luciferase reporter cells); type: cell-based
T3 construct: expressed in transfected cells; host or cells: CHO CRE-luciferase reporter cells
T3 sequence (P48546 22-466): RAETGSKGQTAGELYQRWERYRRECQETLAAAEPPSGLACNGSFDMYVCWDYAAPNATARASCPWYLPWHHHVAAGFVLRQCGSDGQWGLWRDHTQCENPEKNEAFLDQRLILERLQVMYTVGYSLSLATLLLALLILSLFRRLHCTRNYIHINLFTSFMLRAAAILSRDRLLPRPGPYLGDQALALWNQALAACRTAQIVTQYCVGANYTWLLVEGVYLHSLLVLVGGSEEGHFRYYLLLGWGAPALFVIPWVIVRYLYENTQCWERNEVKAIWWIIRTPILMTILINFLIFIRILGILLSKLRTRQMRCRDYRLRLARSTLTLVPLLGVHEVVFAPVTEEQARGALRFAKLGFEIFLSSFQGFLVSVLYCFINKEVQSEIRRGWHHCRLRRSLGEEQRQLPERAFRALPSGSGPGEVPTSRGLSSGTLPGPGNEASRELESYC

[4] = Solubility in 0.1 M phosphate buffer at pH 7; type: physicochemical; settings: 0.1 M phosphate buffer at pH 7, 10 mg/mL final peptide concentration, shaking 2 hours at room temperature, peptides as TFA-salts; measured sample pH 6.5-7.0
[5] = 0.5% human plasma, read-out: hGLP1R 0.5% hP
[6] = 100% human plasma, read-out: hGLP1R 100% hP
[7] = 0.5% human plasma, read-out: hNPY2R 0.5% hP
[8] = 0.5% human plasma, read-out: hGIPR 0.5% hP

T1 sequence (P43220 24-463): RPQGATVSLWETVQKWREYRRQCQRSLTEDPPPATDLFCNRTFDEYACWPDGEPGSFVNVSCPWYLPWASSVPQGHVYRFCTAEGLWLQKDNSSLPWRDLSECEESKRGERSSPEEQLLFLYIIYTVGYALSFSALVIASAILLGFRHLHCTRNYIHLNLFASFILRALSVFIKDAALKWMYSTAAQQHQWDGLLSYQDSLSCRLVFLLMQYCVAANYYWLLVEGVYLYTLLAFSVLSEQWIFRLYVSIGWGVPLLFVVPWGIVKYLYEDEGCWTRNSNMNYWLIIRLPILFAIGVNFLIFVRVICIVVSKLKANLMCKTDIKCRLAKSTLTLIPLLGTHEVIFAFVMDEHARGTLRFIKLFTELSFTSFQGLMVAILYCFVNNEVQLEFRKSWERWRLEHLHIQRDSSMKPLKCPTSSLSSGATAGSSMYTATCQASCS

SMILES	EC50 [1, 5]	EC50 [1, 6]	EC50 [2, 7]	EC50 [3, 8]	EC50 ([3]; 100% human plasma, read-out: hGIPR 100% hP)	EC50 ([2]; 100% human plasma, read-out: hNPY2R 100% hP)	solubility at 2 h [4]
CC[C@H](C)[C@H](NC(=O)[C@H](CC(C)C)NC(=O)[C@H](Cc1c[nH]cn1)NC(=O)[C@H](CCCNC(=N)N)NC(=O)[C@@H](NC(=O)[C@H](Cc1ccccc1)NC(=O)[C@H](C)NC(=O)C(C)(C)NC(=O)[C@H](CCC(N)=O)NC(=O)[C@H](C)NC(=O)[C@H](CCC(N)=O)NC(=O)[C@H](CCCCN)NC(=O)[C@H](CC(=O)O)NC(=O)[C@H](CC(C)C)NC(=O)C(C)(C)NC(=O)[C@@H](NC(=O)[C@H](CO)NC(=O)[C@H](Cc1ccc(O)cc1)NC(=O)[C@H](CC(=O)O)NC(=O)[C@H](CO)NC(=O)[C@@H](NC(=O)[C@H](Cc1ccccc1)NC(=O)[C@@H](NC(=O)CNC(=O)[C@H](CCC(=O)O)NC(=O)C(C)(C)NC(=O)[C@@H](N)Cc1ccc(O)cc1)[C@@H](C)O)[C@@H](C)O)[C@@H](C)CC)C(C)C)C(=O)N[C@@H](CC(N)=O)C(=O)N[C@@H](CCCCNC(=O)[C@@H](N)CCCCNC(=O)CC[C@H](NC(=O)CC[C@H](NC(=O)CC[C@H](NC(=O)CC[C@H](NC(=O)CC[C@H](NC(=O)CC[C@H](NC(=O)CC[C@H](NC(=O)CCCCCCCCCCCCCCCCCCC(=O)O)C(=O)O)C(=O)O)C(=O)O)C(=O)O)C(=O)O)C(=O)O)C(=O)O)C(=O)NC(C)(C)C(=O)N[C@H](C(=O)N[C@@H](CCCNC(=N)N)C(=O)N[C@@H](CCC(N)=O)C(=O)N[C@@H](CCCNC(=N)N)CN[C@@H](Cc1ccc(O)cc1)C(N)=O)[C@@H](C)O [Compound 16, Y-Aib-E-G-T-F-T-S-D-Y-S-I-Aib-L-D-K-Q-A-Q-Aib-A-F-V-R-H-L-I-N-K(1,3)-Aib-T-R-Q-dOR-Y-NH2.C20DA-gGlu-gGlu-gGlu-gGlu-gGlu-gGlu-gGlu-eLys(1,2)] (H-Y[Aib]EGTFTSDYSI[Aib]LDKQAQ[Aib]AFVRHLINK([εLys-γGlu-γGlu-γGlu-γGlu-γGlu-γGlu-γGlu-C20 diacid])[Aib]TRQ-{Argψ(CH2NH)TyrNH2})	0.7 nM	1.8 nM	6.4 nM	0.5 nM	2 nM		
CC[C@H](C)[C@H](NC(=O)[C@H](Cc1ccccc1)NC(=O)[C@H](C)NC(=O)C(C)(C)NC(=O)[C@H](CCC(N)=O)NC(=O)[C@H](C)NC(=O)[C@H](CCC(N)=O)NC(=O)[C@H](CCCCN)NC(=O)[C@H](CC(=O)O)NC(=O)[C@H](CC(C)C)NC(=O)C(C)(C)NC(=O)[C@@H](NC(=O)[C@H](CO)NC(=O)[C@H](Cc1ccc(O)cc1)NC(=O)[C@H](CC(=O)O)NC(=O)[C@H](CO)NC(=O)[C@@H](NC(=O)[C@H](Cc1ccccc1)NC(=O)[C@@H](NC(=O)CNC(=O)[C@H](CCC(=O)O)NC(=O)C(C)(C)NC(=O)[C@@H](N)Cc1ccc(O)cc1)[C@@H](C)O)[C@@H](C)O)[C@@H](C)CC)C(=O)N[C@@H](CCCNC(=N)N)C(=O)N[C@@H](Cc1c[nH]cn1)C(=O)N[C@@H](CC(C)C)C(=O)N[C@H](C(=O)N[C@@H](CC(N)=O)C(=O)N[C@@H](CCCCNC(=O)[C@@H](N)CCCCNC(=O)CC[C@H](NC(=O)CC[C@H](NC(=O)CC[C@H](NC(=O)CC[C@H](NC(=O)CC[C@H](NC(=O)CC[C@H](NC(=O)CCCCCCCCCCCCCCCCCCC(=O)O)C(=O)O)C(=O)O)C(=O)O)C(=O)O)C(=O)O)C(=O)O)C(=O)NC(C)(C)C(=O)N[C@H](C(=O)N[C@@H](CCCNC(=N)N)C(=O)N[C@@H](CCC(N)=O)C(=O)N[C@@H](CCCNC(=N)N)C(=O)N[C@@H](Cc1ccc(O)cc1)C(N)=O)[C@@H](C)O)[C@@H](C)CC [Compound 81, Y-Aib-E-G-T-F-T-S-D-Y-S-I-Aib-L-D-K-Q-A-Q-Aib-A-F-I-R-H-L-I-N-K(1,3)-Aib-T-R-Q-R-Y-NH2.C20DA-gGlu-gGlu-gGlu-gGlu-gGlu-gGlu-eLys(1,2)]	0.6 nM	3.8 nM	7.2 nM	0.5 nM			
CC[C@H](C)[C@H](NC(=O)[C@H](CC(C)C)NC(=O)[C@H](Cc1c[nH]cn1)NC(=O)[C@H](CCCNC(=N)N)NC(=O)[C@@H](NC(=O)[C@H](Cc1ccccc1)NC(=O)[C@H](C)NC(=O)C(C)(C)NC(=O)[C@H](CCC(N)=O)NC(=O)[C@H](C)NC(=O)[C@H](CCC(N)=O)NC(=O)[C@H](CCCCN)NC(=O)[C@H](CCC(=O)O)NC(=O)[C@H](CC(C)C)NC(=O)C(C)(C)NC(=O)[C@@H](NC(=O)[C@H](CO)NC(=O)[C@H](Cc1ccc(O)cc1)NC(=O)[C@H](CC(=O)O)NC(=O)[C@H](CO)NC(=O)[C@@H](NC(=O)[C@H](Cc1ccccc1)NC(=O)[C@@H](NC(=O)CNC(=O)[C@H](CCC(=O)O)NC(=O)C(C)(C)NC(=O)[C@@H](N)Cc1ccc(O)cc1)[C@@H](C)O)[C@@H](C)O)[C@@H](C)CC)C(C)C)C(=O)N[C@@H](CC(N)=O)C(=O)N[C@@H](CCCCNC(=O)[C@@H](N)CCCCNC(=O)CC[C@H](NC(=O)CC[C@H](NC(=O)CC[C@H](NC(=O)CC[C@H](NC(=O)CC[C@H](NC(=O)CC[C@H](NC(=O)CCCCCCCCCCCCCCCCC(=O)O)C(=O)O)C(=O)O)C(=O)O)C(=O)O)C(=O)O)C(=O)O)C(=O)N[C@@H](Cc1c[nH]c2ccccc12)C(=O)N[C@H](C(=O)N[C@@H](CCCNC(=N)N)C(=O)N[C@@H](CCC(N)=O)C(=O)N[C@@H](CCCNC(=N)N)C(=O)N[C@@H](Cc1ccc(O)cc1)C(N)=O)[C@@H](C)O [Compound 172, Y-Aib-E-G-T-F-T-S-D-Y-S-I-Aib-L-E-K-Q-A-Q-Aib-A-F-V-R-H-L-I-N-K(1,3)-W-T-R-Q-R-Y-NH2.C18DA-gGlu-gGlu-gGlu-gGlu-gGlu-gGlu-eLys(1,2)]				1.7 nM		136 nM	3100 µg/mL
CC[C@H](C)[C@H](NC(=O)[C@H](CC(C)C)NC(=O)[C@H](Cc1c[nH]cn1)NC(=O)[C@H](CCCNC(=N)N)NC(=O)[C@@H](NC(=O)[C@H](Cc1ccccc1)NC(=O)[C@H](C)NC(=O)C(C)(C)NC(=O)[C@H](CCC(N)=O)NC(=O)[C@H](C)NC(=O)[C@H](CCC(N)=O)NC(=O)[C@H](CCCCN)NC(=O)[C@H](CCC(=O)O)NC(=O)[C@H](CC(C)C)NC(=O)C(C)(C)NC(=O)[C@@H](NC(=O)[C@H](CO)NC(=O)[C@H](Cc1ccc(O)cc1)NC(=O)[C@H](CC(=O)O)NC(=O)[C@H](CO)NC(=O)[C@@H](NC(=O)[C@H](Cc1ccccc1)NC(=O)[C@@H](NC(=O)CNC(=O)[C@H](CCC(=O)O)NC(=O)C(C)(C)NC(=O)[C@@H](N)Cc1ccc(O)cc1)[C@@H](C)O)[C@@H](C)O)[C@@H](C)CC)C(C)C)C(=O)N[C@@H](CC(N)=O)C(=O)N[C@@H](CCCCNC(=O)CC[C@H](NC(=O)CC[C@H](NC(=O)CC[C@H](NC(=O)CC[C@H](NC(=O)CC[C@H](NC(=O)CCCCCCCCCCCCCCCCCCC(=O)O)C(=O)O)C(=O)O)C(=O)O)C(=O)O)C(=O)O)C(=O)NC(C)(C)C(=O)N[C@H](C(=O)N[C@@H](CCCNC(=N)N)C(=O)N[C@@H](CCC(N)=O)C(=O)N[C@@H](CCCNC(=N)N)C(=O)N[C@@H](Cc1ccc(O)cc1)C(N)=O)[C@@H](C)O [Compound 176, Y-Aib-E-G-T-F-T-S-D-Y-S-I-Aib-L-E-K-Q-A-Q-Aib-A-F-V-R-H-L-I-N-K(1,3)-Aib-T-R-Q-R-Y-NH2.C20DA-gGlu-gGlu-gGlu-gGlu-gGlu(1,2)]			32.8 nM	0.6 nM			5300 µg/mL
